Patent US11591336B2 (Relay Therapeutics, Inc., priority 2017, dated 2023)
Where a name gives a salt, the structure may show the parent alone. One block for each compound: values may come before it.

Biological target: SHP2 (Homo sapiens (Human), UniProt Q06124)
Assay: SHP2 Allosteric Inhibition Assay (DiFMUP prompt fluorescence)
Assay type: biochemical
Details: 0.25 nM SHP2 activated with 0.5 μM peptide IRS1_pY1172(dPEG8)pY1222; substrate DiFMUP 100 μM; 25° C.

Structure (SMILES): C[C@@H]1OCC2(CCN(c3cnc4c(N5CCCc6cc(-c7cnn(C)c7)ccc65)n[nH]c4n3)CC2)[C@@H]1N [Compound 365]
- IC50: < 1 µM

Structure (SMILES): C[C@H]1CCN(c2n[nH]c3nc(N4CCC5(CC4)COC[C@H]5N)cnc23)c2ccc(-c3ncon3)cc21 [Compound 299, (4S)-8-{3-[(4S)-4-methyl-6-(1,2,4-oxadiazol-3-yl)-1,2,3,4-tetrahydroquinolin-1-yl]-1H-pyrazolo[3,4-b]pyrazin-6-yl}-2-oxa-8-azaspiro[4.5]decan-4-amine]
- IC50: < 1 µM

Structure (SMILES): C[C@@H]1OCC2(CCN(c3cnc4c(N5CCCc6c5cccc6S(=O)(=O)C5COC5)n[nH]c4n3)CC2)[C@@H]1N [Compound 464]
- IC50: < 1 µM

Structure (SMILES): NC[C@H]1CCN(c2cnc3c(N4CCCc5ncccc54)n[nH]c3n2)[C@@H](Cc2ccccc2)C1 (racemic) [Compound 159]
- IC50: 1 to 10 µM

Structure (SMILES): CC1(N)CCN(c2cnc3c(SC4CCCNC4)n[nH]c3n2)CC1 (centres unmarked) [Compound 492, 4-methyl-1-(3-(piperidin-3-ylthio)-1H-pyrazolo[3,4-b]pyrazin-6-yl)piperidin-4-amine]
- IC50: ≥ 10 µM

Structure (SMILES): CC(C)S(=O)(=O)c1cccc2c1CCCN2c1n[nH]c2nc(N3CCC4(CC3)CO[C@@H](C)[C@H]4N)cnc12 [Compound 456]
- IC50: < 1 µM

Structure (SMILES): C[C@@H]1OCC2(CCN(c3cnc4c(N5CCOc6ccccc6C5)n[nH]c4n3)CC2)[C@@H]1N [Compound 269]
- IC50: < 1 µM

Structure (SMILES): CC(=O)N1CC(N2CCN(c3n[nH]c4nc(N5CCC6(CC5)CO[C@@H](C)[C@H]6N)cnc34)c3ccc(C#N)cc32)C1 [Compound 471]
- IC50: < 1 µM

Structure (SMILES): CC1CCN(c2n[nH]c3nc(N4CCC5(CC4)CNC(=O)C5)cnc23)c2cccnc21 (centres unmarked) [Compound 222, 8-[3-(4-methyl-1,2,3,4-tetrahydro-1,5-naphthyridin-1-yl)-1H-pyrazolo[3,4-b]pyrazin-6-yl]-2,8-diazaspiro[4.5]decan-3-one]
- IC50: 1 to 10 µM

Structure (SMILES): C[C@@H]1OCC2(CCN(c3cnc4c(N5CC(=O)N(C)c6ccccc65)n[nH]c4n3)CC2)[C@@H]1N [Compound 238]
- IC50: < 1 µM

Structure (SMILES): NC[C@H]1CCN(c2cnc3c(N4CCCc5ncccc54)n[nH]c3n2)[C@H](Cc2ccccc2)C1 (racemic) [Compound 158]
- IC50: ≥ 10 µM

Structure (SMILES): C[C@@H]1CCN(c2n[nH]c3nc(N4CCC5(CC4)CO[C@@H](C)[C@H]5N)cnc23)c2ccc(-c3ccn[nH]3)nc21 [Compound 432]
- IC50: < 1 µM

Structure (SMILES): CC(C)c1nc(-c2ccc3c(n2)CCCN3c2n[nH]c3nc(N4CCC5(CC4)CO[C@@H](C)[C@H]5N)cnc23)no1 [Compound 321, (3S,4S)-3-methyl-8-(3-{6-[5-(propan-2-yl)-1,2,4-oxadiazol-3-yl]-1,2,3,4-tetrahydro-1,5-naphthyridin-1-yl}-1H-pyrazolo[3,4-b]pyrazin-6-yl)-2-oxa-8-azaspiro[4.5]decan-4-amine; formic acid]
- IC50: < 1 µM

Structure (SMILES): C[C@@H]1OCC2(CCN(c3cnc4c(N5CCCc6c5ccnc6S(C)(=O)=O)n[nH]c4n3)CC2)[C@@H]1N [Compound 416]
- IC50: < 1 µM

Structure (SMILES): CC1(N)CCN(c2cnc3c(Oc4cccnc4N)n[nH]c3n2)CC1 [Compound 508, 3-((6-(4-Amino-4-methylpiperidin-1-yl)-1H-pyrazolo[3,4-b]pyrazin-3-yl)oxy)pyridin-2-amine hydrochloride]
- IC50: 1 to 10 µM

Structure (SMILES): CC1(N)CCN(c2cnc3c(Sc4ncnc5ccccc45)n[nH]c3n2)CC1 [Compound 493, 4-methyl-1-(3-(quinazolin-4-ylthio)-1H-pyrazolo[3,4-b]pyrazin-6-yl)piperidin-4-amine]
- IC50: < 1 µM

Structure (SMILES): CC1(N)CCN(c2cnc3c(Sc4cccnc4C(=O)O)n[nH]c3n2)CC1 [Compound 482]
- IC50: < 1 µM

Structure (SMILES): N[C@@H]1CC(O)CC12CCN(c1cnc3c(N4CCCc5ncccc54)n[nH]c3n1)CC2 (stereo in doubt) [Compound 468, (2R,4R)-4-amino-8-(3-(3,4-dihydro-1,5-naphthyridin-1(2H)-yl)-1H-pyrazolo[3,4-b]pyrazin-6-yl)-8-azaspiro[4.5]decan-2-ol]
- IC50: < 1 µM

Structure (SMILES): CC1(N)CCN(c2cnc3c(NCc4ccccc4)n[nH]c3n2)CC1 [Compound 473, 6-(4-amino-4-methyl-1-piperidyl)-N-benzyl-1H-pyrazolo[3,4-b]pyrazin-3-amine]
- IC50: 1 to 10 µM

Structure (SMILES): NC1CCOC12CCN(c1cnc3c(N4CCCc5ncccc54)n[nH]c3n1)CC2 (centres unmarked) [Compound 55, 8-(3-(3,4-dihydro-1,5-naphthyridin-1(2H)-yl)-1H-pyrazolo[3,4-b]pyrazin-6-yl)-1-oxa-8-azaspiro[4.5]decan-4-amine]
- IC50: < 1 µM

Structure (SMILES): C[C@@H]1OCC2(CCN(c3cnc4c(N5CCCc6nc(-c7ncon7)ccc65)n[nH]c4n3)CC2)[C@@H]1N [Compound 246, (3S,4S)-8-(3-(6-(1,2,4-oxadiazol-3-yl)-3,4-dihydro-1,5-naphthyridin-1(2H)-yl)-1H-pyrazolo[3,4-b]pyrazin-6-yl)-3-methyl-2-oxa-8-azaspiro[4.5]decan-4-amine]
- IC50: < 1 µM

Structure (SMILES): C[C@@H]1OCC2(CCN(c3cnc4c(N5CCCc6c5ccnc6-c5cnn(C)c5)n[nH]c4n3)CC2)[C@@H]1N [Compound 226]
- IC50: < 1 µM

Structure (SMILES): N[C@@H]1CCC[C@]12CCN(c1cnc3c(N4CCCc5ncccc54)n[nH]c3n1)C2 (stereo in doubt) [Compound 204, rel-(5R,6R)-2-(3-(3,4-dihydro-1,5-naphthyridin-1(2H)-yl)-1H-pyrazolo[3,4-b]pyrazin-6-yl)-2-azaspiro[4.4]nonan-6-amine]
- IC50: 1 to 10 µM

Structure (SMILES): Cc1nnc(-c2ccc3c(n2)CCCN3c2n[nH]c3nc(N4CCC5(CC4)CO[C@@H](C)[C@H]5N)cnc23)s1 [Compound 407]
- IC50: < 1 µM

Structure (SMILES): C[C@@H]1OCC2(CCN(c3cnc4c(N5CC[C@H](C)c6nc(C(=O)N(C)C)ccc65)n[nH]c4n3)CC2)[C@@H]1N [Compound 364, (8S)-5-{6-[(3S,4S)-4-amino-3-methyl-2-oxa-8-azaspiro[4.5]decan-8-yl]-1H-pyrazolo[3,4-b]pyrazin-3-yl}-N,N,8-trimethyl-5,6,7,8-tetrahydro-1,5-naphthyridine-2-carboxamide]
- IC50: < 1 µM

Structure (SMILES): Cc1nccc(Oc2n[nH]c3nc(N4CCC5(CC4)CO[C@@H](C)[C@H]5N)cnc23)c1Cl [Compound 517, (3S,4S)-8-(3-((3-chloro-2-methylpyridin-4-yl)oxy)-1H-pyrazolo[3,4-b]pyrazin-6-yl)-3-methyl-2-oxa-8-azaspiro[4.5]decan-4-amine]
- IC50: < 1 µM

Structure (SMILES): CC1(CN)CCN(c2cnc3c(Oc4cc(N)nc(Cl)c4Cl)n[nH]c3n2)CC1 [Compound 518, 4-((6-(4-(aminomethyl)-4-methylpiperidin-1-yl)-1H-pyrazolo[3,4-b]pyrazin-3-yl)oxy)-5,6-dichloropyridin-2-amine hydrochloride]
- IC50: < 1 µM

Structure (SMILES): CC1(N)CCN(c2cnc3c(Oc4cccnc4Cl)n[nH]c3n2)CC1 [Compound 510, 1-(3-((2-chloropyridin-3-yl)oxy)-1H-pyrazolo[3,4-b]pyrazin-6-yl)-4-methylpiperidin-4-amine]
- IC50: < 1 µM

Structure (SMILES): C[C@@H]1C[C@@H](N)CCN1c1cnc2c(N3CCCc4ncccc43)n[nH]c2n1 (stereo in doubt) [Compound 24, rel-(2R,4S)-1-(3-(3,4-Dihydro-1,5-naphthyridin-1(2H)-yl)-1H-pyrazolo[3,4-b]pyrazin-6-yl)-2-methylpiperidin-4-amine]
- IC50: < 1 µM

Structure (SMILES): C[C@@H]1OCC2(CCN(c3cnc4c(N5CCCc6nc(O)ccc65)n[nH]c4n3)CC2)[C@@H]1N [Compound 378]
- IC50: < 1 µM

Structure (SMILES): C[C@@H]1OCC2(CCN(c3cnc4c(N5CCN(C)c6nc(Cl)ccc65)n[nH]c4n3)CC2)[C@@H]1N [Compound 377]
- IC50: < 1 µM

Structure (SMILES): C[C@@H]1OCC2(CCN(c3cnc4c(N5CCCc6nc(-n7cncn7)ccc65)n[nH]c4n3)CC2)[C@@H]1N [Compound 279]
- IC50: < 1 µM

Structure (SMILES): C[C@@H]1OCC2(CCN(c3cnc4c(N5CCN(C6CC(F)(F)C6)c6cc(C#N)ccc65)n[nH]c4n3)CC2)[C@@H]1N [Compound 530]
- IC50: < 1 µM

More lines, now with the values ahead:

- IC50: < 1 µM
Structure (SMILES): C[C@H]1CCN(c2n[nH]c3nc(N4CCC(C)(CN)CC4)cnc23)c2ccc(-c3nccs3)nc21 (single isomer, unassigned) [Compound 197, hydrochloride]

- IC50: < 1 µM
Structure (SMILES): CC1(CN)CCN(c2cnc3c(N4CCC(CO)c5ccccc54)n[nH]c3n2)CC1 (centres unmarked) [Compound 99, (1-(6-(4-(Aminomethyl)-4-methylpiperidin-1-yl)-1H-pyrazolo[3,4-b]pyrazin-3-yl)-1,2,3,4-tetrahydroquinolin-4-yl)methanol]

- IC50: < 1 µM
Structure (SMILES): CCC1CCN(c2n[nH]c3nc(N4CCC(C)(CN)CC4)cnc23)c2ccccc21 (centres unmarked) [Compound 84]

- IC50: < 1 µM
Structure (SMILES): CC1(CN)CCN(c2cnc3c(N4CCc5c(C#N)cccc54)n[nH]c3n2)CC1 [Compound 164]

- IC50: < 1 µM
Structure (SMILES): C[C@@H]1OCC2(CCN(c3cnc4c(N5CCCc6c5cccc6N(C)S(C)(=O)=O)n[nH]c4n3)CC2)[C@@H]1N [Compound 374]

- IC50: < 1 µM
Structure (SMILES): CCCC1(CN)CCN(c2cnc3c(N4CCCc5ncccc54)n[nH]c3n2)CC1 [Compound 97, (1-(3-(3,4-dihydro-1,5-naphthyridin-1(2H)-yl)-1H-pyrazolo[3,4-b]pyrazin-6-yl)-4-propylpiperidin-4-yl)methanamine dihydrochloride]

- IC50: < 1 µM
Structure (SMILES): CCC(=O)N1CCN(c2n[nH]c3nc(N4CCC(C)(CN)CC4)cnc23)c2ccccc21 [Compound 193]

- IC50: < 1 µM
Structure (SMILES): Cc1ccc2c(c1)CCCN2c1n[nH]c2nc(N3CCC4(CC3)CO[C@@H](C)[C@H]4N)cnc12 [Compound 354]

- IC50: < 1 µM
Structure (SMILES): CC1(CN)CCN(c2cnc3c(N4CCOc5ccccc54)n[nH]c3n2)CC1 [Compound 163]

- IC50: < 1 µM
Structure (SMILES): CC1(CN)CCN(c2cnc3c(N4CCc5ccccc54)n[nH]c3n2)CC1 [Compound 118]

- IC50: < 1 µM
Structure (SMILES): CC(=O)N(C)Cc1cccc2c1CCCN2c1n[nH]c2nc(N3CCC4(CC3)CO[C@@H](C)[C@H]4N)cnc12 [Compound 466]

- IC50: < 1 µM
Structure (SMILES): CC1(CN)CCN(c2cnc3c(N4CCCc5nc(C#N)ccc54)n[nH]c3n2)CC1 [Compound 126]

- IC50: < 1 µM
Structure (SMILES): CC1CCN(c2n[nH]c3nc(N4CCC(C)(CN)CC4)cnc23)c2ccccc21 (centres unmarked) [Compound 48]

- IC50: 1 to 10 µM
Structure (SMILES): CC1(N)CCN(c2cnc3c(N4C(=O)CCc5ncccc54)n[nH]c3n2)CC1 [Compound 39, 1-(6-(4-amino-4-methylpiperidin-1-yl)-1H-pyrazolo[3,4-b]pyrazin-3-yl)-3,4-dihydro-1,5-naphthyridin-2(1H)-one]
